Data: patent US20240100013A1, “SOTAGLIFLOZIN FOR IMPROVING LEFT ATRIAL FUNCTION” (CHARITÉ-UNIVERSITÄTSMEDIZIN BERLIN, priority 2021, published 2024)

Key:
LA cardiomyocytes [1] = assay: Caffeine-induced CaT: SR Ca2+ load, tau of decay and NCX forward-mode activity; type: cell-based, rat
Description: Solutions and chemicals. Chemicals were obtained from Sigma-Aldrich (St. Louis, MO, USA) unless noted otherwise. The dual SGLT1/2 inhibitor sotagliflozin was provided by Lexicon Pharmaceuticals (The Woodlands, TX, USA). Fluorescent dyes Fura-2 AM, Rhod-2 AM, MitoTracker red, MitoTracker green, TMRE and H2-DCF were obtained from Thermo Fisher Scientific (Waltham, MA, USA). Tyrode solution contained (in mM): 130 NaCL, 4 KCl, 2 CaCl, 1 MgCl2, 10 Glucose, 10 HEPES; pH adjusted to 7.4 with NaOH. LA cardiomyocytes were plated on laminin-coated glass coverslips. 20 mM caffeine was added to Tyrode solution to induce sarcoplasmic reticulum (SR) Ca^2+ release and obtain a measure of SR Ca^2+ content. For baseline recordings of Ca^2+ transient (CaT), sarcomere shortening and arrhythmic events (FIGS. 1C-F, 2A-E, 3A-F), Tyrode solution containing 3 mM Ca^2+ was used. For glucose starvation (FIGS. 2H-J, 5A-D), glucose of Tyrode solution was replaced with 30 mM mannitol. For sub-sequent glucose reintroduction, mannitol was replaced with 30 mM glucose (“high glucose condition”).
Ca^2+ measurements and sarcomere shortening. Radiometric Ca^2+ measurements (excitation: 340 nm and 385 nm, emission: 510±10 nm; [Ca^2+] expressed as the ratio R=F340/F380) were performed either with a CytoCypher MultiCell System (CytoCypher BV, Netherlands; FIGS. 1C-F, 2D-G, 4A-F) or an Axiovert 200 microscope (Zeiss, Oberkochen, Germany) fluorescence imaging assembly (FIGS. 2A-C, 2H-J, 3A-E, 6E-I). LA cardiomyocytes were loaded with Fura-2 for 30 min at room temperature, washed twice with Tyrode solution and transferred to the microscope. Experiments were conducted at 37° C. and CaT were recorded at steady state (following electric stimulation).
CaT and sarcomere shortening of LA and LV cardiomyocytes were recorded for 10 s at 3 Hz stimulation. See FIGS. 2D-G, 4A-F. Electric stimulation was turned off and spontaneous SR Ca^2+ release events (See Voigt N, Heijman J, Wang Q, Chiang D Y, Li N, Karck M, Wehrens X H T, Nattel S, Dobrev D: “Cellular and molecular mechanisms of atrial arrhythmogenesis in patients with paroxysmal atrial fibrillation,” Circulation 2014, 129(2):145-156) (SCaEs) immediately recorded for a duration of 10 s (FIG. 1C-F). In a sub-set of LA cells, CaT were recorded for 10 s at 1 Hz stimulation. Electric stimulation was turned off, the cells immediately exposed to 20 mM caffeine and the sub-sequent caffeine-induced CaT recorded for 10 s (FIG. 2A-C, 3A-E). Sodium-calcium exchanger (NCX) activity was calculated as previously described. See Hohendanner F, Walther S, Maxwell J T, Kettlewell S, Awad S, Smith G L, Lonchyna V A, Blatter L A: “Inositol-1,4,5-trisphosphate induced Ca^2+ release and excitation-contraction coupling in atrial myocytes from normal and failing hearts,” J Physiol 2015, 593(6):1459-1477.

LA cardiomyocytes [2] = assay: ROS production (H2-DCF) in LA cardiomyocytes; type: cell-based, rat; details: HFpEF
Procedure: ROS production. LA cardiomyocytes were starved of glucose for 1 h at 37° C., loaded with H2-DCF and transferred to an LSM 800 laser scanning microscope. Two-dimensional images (excitation: 488 nm, emission: […]) were acquired for a duration of 30 s (interval: 2 s, resolution: 256×256 px, pixel size: 0.624 μm, pixel time: 8.24 μs, laser intensity: 0.6%). Cells were exposed to 30 mM glucose and another set of images acquired for a duration of 90 s. Image sequences acquired between 0-30 s (glucose starved) and 90-120 s (glucose saturated) were individually assessed. H2-DCF signal intensity (F) of the initial image was defined as F0, reactive oxygen species (ROS) accumulation calculated as ΔF=F−F0 per image, averaged per image sequence and reported as the respective rate ΔF/(F0*t).

HFpEF (ZSF-1 obese) rats = assay: Echocardiography of LA size in the ZSF-1 obese rat model of HFpEF after chronic treatment; type: in vivo; details: 30 mg/kg/day oral feeding, seven weeks, vs vehicle
Description: Animal experiments were approved by local authorities. The ZSF-1 obese rat model is based on a leptin receptor mutation resulting in severe metabolic dysfunction. See Bilan V P, Salah E M, Bastacky S, Jones H B, Mayers R M, Zinker B, Poucher S M, Tofovic S P: “Diabetic nephropathy and long-term treatment effects of rosiglitazone and enalapril in obese ZSF1 rats,” J Endocrinol 2011, 210(3):293-308. The model has repeatedly been reported to show distinct features of HFpEF, such as an increased left ventricular (LV) end diastolic pressure, LV hypertrophy, diastolic dysfunction, lung congestion and LA remodeling, while maintaining a preserved ejection fraction (EF).
Echocardiography. Echocardiography was performed and analyzed as previously described (See Hohendanner F, Bode D, Primessnig U, Guthof T, Doerr R, Jeuthe S, Reimers S, Zhang K, Bach D, Wakula P et al: “Cellular mechanisms of metabolic syndrome-related atrial decompensation in a rat model of HFpEF” J Mol Cell Cardiol 2018, 115:10-19) by an experienced observer (N.H.) blinded to the treatment group immediately prior to sacrifice using a vevo lab ultrasound system to assess LA size and LV fractional shortening in vivo. 1-lead electrocardiograms were obtained during echocardiography and the presence or absence of atrial rhythm disorders i.e., atrial fibrillation was documented.

## CCOc1ccc(Cc2cc([C@@H]3O[C@H](SC)[C@@H](O)[C@H](O)[C@H]3O)ccc2Cl)cc1 [sotagliflozin, (2S,3R,4R,5S,6R)-2-(4-chloro-3-(4-ethoxybenzyl)phenyl)-6-(methylthio)tetrahydro-2H-pyran-3,4,5-triol]
LA cardiomyocytes [1]; HFpEF, 20 mM caffeine
  SR Ca2+ load: no effect
  tau of caffeine-induced CaT: unchanged
LA cardiomyocytes [1]; HFpEF, 1 Hz electric stimulation
  tau of decay (paced CaT): significantly prolonged
LA cardiomyocytes [1]; HFpEF, Sota vs vehicle
  increase of contribution of NCX forward-mode activity on cytosolic Ca2+ removal: −50%
LA cardiomyocytes [1]; HFpEF, vehicle 7.6±0.7, n=14 and 21 cells
  contribution of NCX forward-mode activity on cytosolic Ca2+ removal: 11.6±0.7%
LA cardiomyocytes [1]; after chronic treatment, HFpEF vs WT
  increased forward mode NCX activity: only occurs in HFpEF, but not WT
LA cardiomyocytes [2]; 30 mM glucose
  decrease of ROS production after reintroduction of glucose: this effect could not be observed
LA cardiomyocytes [2]; after 1 h glucose starvation
  ROS production: significantly reduced
HFpEF (ZSF-1 obese) rats
  LA enlargement (LA volume in vivo): mitigates LA enlargement
